Earlier results on 1 compound are cited in patent publication US10156556B2, “Method for determining ecological risks of polycyclic aromatic hydrocarbon in water body” (priority 2013, dated 2018).

For this series the following is noted: relative to benzoapyrene; Nisbet and Lagoy 1992; cited from earlier work.

For the compound `c1ccc2c(c1)-c1cccc3cccc-2c13` [Flu], the Toxic equivalency factor is 0.001.
